Our source for the EC50, IC50 and melting point values is patent US20230183248A1, “PYRROLO[1,2-D][1,2,4]TRIAZINE-2-YL-ACETAMIDES AS INHIBITORS OF THE NLRP3 INFLAMMASOME PATHWAY” (JANSSEN PHARMACEUTICA NV, priority 2020, published 2023).

Structures are written as SMILES.

One data set concerns TNF. Put plainly: PBMC assay: LPS-stimulated TNF cytokine levels. It is filed as cell-based. Conditions: Homo sapiens, PBMC, human PBMCs, 30 min compound pre-incubation, 100 ng/ml LPS for 6 hrs, supernatant, MSD. How it is done:
(§1) Peripheral venous blood was collected from healthy individuals and human peripheral blood mononuclear cells (PBMCs) were isolated from blood by Ficoll-Histopaque (Sigma-Aldrich, A0561) density gradient centrifugation. After isolation, PBMCs were stored in liquid nitrogen for later use. Upon thawing, PBMC cell viability was determined in growth medium (RPMI media supplemented with 10% fetal bovine serum, 1% Pen-Strep and 1% L-glutamine). Compounds were spotted in a 1:3 serial dilution in DMSO and diluted to the final concentration in 30 µl medium in 96 well plates (Falcon, 353072). PBMCs were added at a density of 7.5 × 10^4 cells per well and incubated for 30 min in a 5% CO2 incubator at 37° C. LPS stimulation was performed by addition of 100 ng/ml LPS (final concentration, Invivogen, tlrl-smlps) for 6 hrs followed by collection of cellular supernatant and the analysis of IL-1β […] and TNF cytokines levels (µM) via MSD technology according to manufacturers’ guidelines (MSD, K151A0H).
(§2) The IC50 values (for IL-1β) and EC50 values (TNF) were obtained on compounds of the invention/examples, and are depicted in the following table: […]

A further data set has as its system IL-1β. Put plainly: PBMC assay: LPS-stimulated IL-1β release. Type of data set: cell-based. The following applies: human PBMCs, 30 min compound pre-incubation, 100 ng/ml LPS for 6 hrs, supernatant, MSD. As to the method: as §1, §2

By EC50 is commonly meant the concentration needed to bring the measured effect to its halfway point. By IC50 is commonly meant the concentration that gives 50% inhibition. A higher IC50 goes with lower potency. In general, melting point refers to the temperature of the solid-liquid transition.

Molecule `CCCc1cc2c(=O)n(CC(=O)Nc3ccncn3)nc(C(C)C)n2c1` [Compound 59F] had a melting point of 149.7 °C. The same molecule registered an EC50 in the data set on TNF above 10 µM. Besides, in the data set with IL-1β (Homo sapiens, PBMC), the IC50 came to 0.47 µM.

As for `CCCCc1nn(CC(=O)Nc2ccncn2)c(=O)c2cc(C(C)C)cn12` [Compound 61F], the melting point was determined as 166.41 °C. The molecule also showed an EC50 with TNF above 10 µM. The IC50 in the data set on IL-1β (Homo sapiens, PBMC) came to 1.01 µM.

`COCc1nn(CC(=O)Nc2ccncn2)c(=O)c2cc(C(C)C)cn12` [Compound 63F] displayed a melting point of 201.37 °C. In the data set on TNF, this molecule showed an EC50 above 10 µM. In addition, in the data set on IL-1β (Homo sapiens, PBMC), the IC50 was found to be 1.37 µM.

`C/C(=N/O)c1nn(CC(=O)N[C@H]2C[C@@](C)(O)C2)c(=O)c2cc(C(C)C)cn12` [Compound 64F] returned a melting point of 224.87 °C. Also, the EC50 in the data set on TNF is above 10 µM. For the same molecule, the IC50 with IL-1β (Homo sapiens, PBMC) was 0.32 µM.

Molecule `CC(=O)NC(C)c1nn(CC(=O)Nc2ccncn2)c(=O)c2cc(C(C)C)cn12` (stereo not shown) [Compound 65F] gave a melting point of 279.37 °C. The molecule also displayed a concentration giving a half-maximal response (EC50) with TNF above 10 µM. The same molecule displayed an IC50 with IL-1β (Homo sapiens, PBMC) of 7.08 µM. This molecule also displayed an IC50 in the data set with IL-1β of 6.9 µM.

`CC(C)c1cc2c(=O)n(CC(=O)N[C@H]3C[C@@](C)(O)C3)nc(C(C)C)n2c1` [Compound 68F] registered a melting point of 196.59 °C. This molecule returned an EC50 in the data set on TNF above 10 µM. In addition, in the data set on IL-1β (Homo sapiens, PBMC), the IC50 came out at 0.16 µM.

`CCc1cc2c(=O)n(CC(=O)Nc3ccncn3)nc(N(C)C)n2c1` [Compound 73F, 2-(4-(dimethylamino)-7-ethyl-1-oxopyrrolo[1,2-d][1,2,4]triazin-2(1H)-yl)-N-(pyrimidin-4-yl)acetamide] displayed a melting point of 178.1 °C. This molecule registered an EC50 in the data set on TNF above 10 µM. Further, half-maximal inhibition in the data set with IL-1β (Homo sapiens, PBMC) (IC50) was put at 0.35 µM.

On to `CCc1cc2c(=O)n(CC(=O)Nc3ccncn3)nc(N(C)CC)n2c1` [Compound 74F], for which the melting point came to 156.3 °C. Also, the 50% effective concentration (EC50) in the data set on TNF was above 10 µM. The molecule further gave an IC50 with IL-1β (Homo sapiens, PBMC) of 1.4 µM.

The molecule `CC(=O)c1cc2c(=O)n(CC(=O)Nc3ccncn3)nc(C(C)C)n2c1` [Compound 85F, 2-(7-acetyl-4-isopropyl-1-oxopyrrolo[1,2-d][1,2,4]triazin-2(1H)-yl)-N-(pyrimidin-4-yl)acetamide] registered a melting point of 262.3 °C. Further, the EC50 in the data set on TNF was above 10 µM. In the data set on IL-1β (Homo sapiens, PBMC), this molecule returned an IC50 above 10 µM.
